Experiments:
[1] = molecular target: T1, UGT1A7 (Homo sapiens, UniProt Q9HAW7); assay: UGT1A7 supersomes-catalyzed 4-MU glucuronidation inhibition; settings: 50 μM LPC components; recombinant human UGT; mean of triplicate
T1 sequence (Q9HAW7 26-530): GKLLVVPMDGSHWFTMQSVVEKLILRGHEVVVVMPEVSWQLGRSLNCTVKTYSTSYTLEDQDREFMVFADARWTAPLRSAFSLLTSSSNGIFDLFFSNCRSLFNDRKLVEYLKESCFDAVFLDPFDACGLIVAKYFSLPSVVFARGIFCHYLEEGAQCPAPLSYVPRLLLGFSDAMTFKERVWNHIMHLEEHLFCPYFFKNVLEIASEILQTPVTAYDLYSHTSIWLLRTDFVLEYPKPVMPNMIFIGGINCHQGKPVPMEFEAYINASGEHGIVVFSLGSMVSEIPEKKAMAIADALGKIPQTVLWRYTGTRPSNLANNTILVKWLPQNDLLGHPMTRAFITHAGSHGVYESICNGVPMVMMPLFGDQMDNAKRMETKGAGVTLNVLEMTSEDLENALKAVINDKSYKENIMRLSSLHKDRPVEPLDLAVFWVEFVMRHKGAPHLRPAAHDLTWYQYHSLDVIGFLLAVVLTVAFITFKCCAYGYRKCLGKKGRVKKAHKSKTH

[2] = molecular target: T2, UGT1A3 (Homo sapiens, UniProt P35503); assay: UGT1A3 supersomes-catalyzed 4-MU glucuronidation inhibition; settings: 50 μM LPC components; recombinant human UGT; mean of triplicate
T2 sequence (P35503 29-534): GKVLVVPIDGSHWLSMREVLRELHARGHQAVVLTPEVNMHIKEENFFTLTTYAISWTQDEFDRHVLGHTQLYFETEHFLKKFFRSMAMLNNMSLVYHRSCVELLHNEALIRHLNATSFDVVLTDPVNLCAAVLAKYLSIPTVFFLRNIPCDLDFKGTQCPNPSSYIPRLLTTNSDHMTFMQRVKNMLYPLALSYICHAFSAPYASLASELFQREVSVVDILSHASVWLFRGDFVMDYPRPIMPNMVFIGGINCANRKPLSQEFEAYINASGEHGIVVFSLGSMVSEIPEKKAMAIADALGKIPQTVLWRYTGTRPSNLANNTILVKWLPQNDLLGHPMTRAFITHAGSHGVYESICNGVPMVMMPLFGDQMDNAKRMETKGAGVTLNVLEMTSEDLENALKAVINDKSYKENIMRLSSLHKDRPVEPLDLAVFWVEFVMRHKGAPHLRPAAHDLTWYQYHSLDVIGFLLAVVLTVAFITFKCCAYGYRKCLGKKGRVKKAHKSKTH

[3] = molecular target: T3, UGT1A6 (Homo sapiens, UniProt P19224)
T3 sequence (P19224 27-532): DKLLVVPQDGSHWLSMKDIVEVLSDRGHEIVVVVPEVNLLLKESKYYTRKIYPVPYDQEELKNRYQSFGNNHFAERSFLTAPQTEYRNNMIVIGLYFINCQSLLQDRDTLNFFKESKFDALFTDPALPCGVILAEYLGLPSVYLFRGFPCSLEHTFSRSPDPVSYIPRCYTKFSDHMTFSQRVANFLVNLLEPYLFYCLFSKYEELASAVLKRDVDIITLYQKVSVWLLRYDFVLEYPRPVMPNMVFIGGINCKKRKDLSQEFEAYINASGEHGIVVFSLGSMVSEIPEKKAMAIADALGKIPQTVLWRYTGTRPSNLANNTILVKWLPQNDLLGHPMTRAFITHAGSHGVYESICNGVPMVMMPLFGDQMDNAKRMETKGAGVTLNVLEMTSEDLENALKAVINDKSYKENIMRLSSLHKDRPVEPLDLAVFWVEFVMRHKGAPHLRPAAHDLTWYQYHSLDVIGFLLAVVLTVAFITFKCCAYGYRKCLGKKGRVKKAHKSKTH

[4] = system: UGT isoforms; assay: Initial screening towards all UGT isoforms; type: biochemical, human; settings: about 50 μM; isoforms not given

SMILES: CCCCCCCCCCCCCCCCCC(=O)OC[C@@H](O)COP(=O)([O-])OCC[N+](C)(C)C [LPC 18:0]
- residual activity 1A7 [1]: 133.4%
- residual activity 1A3 [2]: 72.4%
- residual activity 1A6 ([3]; 50 μM LPC components, recombinant human UGT, mean of triplicate): 4.3%
- inhibition kinetic type towards UGT1A6 ([3]; Dixon and Lineweaver-Burk plots, 4-MU glucuronidation): non-competitively inhibited
- inhibition of activity of UGT isoforms [4]: more than 90%

From article PMC6631349 (Xenobiotica; the fate of foreign compounds in biological …, 2014)
